Legend:
Assay type in all cases: binding
[1] = target: T1, SW480 colon carcinoma cells lysate proteins (Homo sapiens, UniProt P04264); details: PreyGene KRT1
T1 sequence (P04264 1-644): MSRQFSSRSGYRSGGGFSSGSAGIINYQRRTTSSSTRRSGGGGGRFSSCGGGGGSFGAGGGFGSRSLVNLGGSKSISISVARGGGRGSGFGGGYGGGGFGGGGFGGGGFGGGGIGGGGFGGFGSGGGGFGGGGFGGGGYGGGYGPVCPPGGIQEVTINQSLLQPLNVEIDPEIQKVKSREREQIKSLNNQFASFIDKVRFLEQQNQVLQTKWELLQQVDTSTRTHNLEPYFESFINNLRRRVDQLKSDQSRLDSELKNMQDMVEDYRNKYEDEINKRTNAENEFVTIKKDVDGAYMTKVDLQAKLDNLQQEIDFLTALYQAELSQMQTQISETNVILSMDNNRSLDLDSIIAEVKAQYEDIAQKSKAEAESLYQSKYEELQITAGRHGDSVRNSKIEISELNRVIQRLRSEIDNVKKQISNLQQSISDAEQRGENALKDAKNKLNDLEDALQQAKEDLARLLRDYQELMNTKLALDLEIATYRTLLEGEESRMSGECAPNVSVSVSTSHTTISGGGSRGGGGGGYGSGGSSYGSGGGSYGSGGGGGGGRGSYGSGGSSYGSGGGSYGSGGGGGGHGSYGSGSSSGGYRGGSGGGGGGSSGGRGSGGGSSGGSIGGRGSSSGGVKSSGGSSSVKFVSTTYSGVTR

[2] = target: SW480 colon carcinoma cells lysate proteins (Homo sapiens, UniProt P67809); details: PreyGene YBX1; SW480 cells
Chain of SW480 colon carcinoma cells lysate proteins (Homo sapiens, UniProt P67809) (P67809 whole entry): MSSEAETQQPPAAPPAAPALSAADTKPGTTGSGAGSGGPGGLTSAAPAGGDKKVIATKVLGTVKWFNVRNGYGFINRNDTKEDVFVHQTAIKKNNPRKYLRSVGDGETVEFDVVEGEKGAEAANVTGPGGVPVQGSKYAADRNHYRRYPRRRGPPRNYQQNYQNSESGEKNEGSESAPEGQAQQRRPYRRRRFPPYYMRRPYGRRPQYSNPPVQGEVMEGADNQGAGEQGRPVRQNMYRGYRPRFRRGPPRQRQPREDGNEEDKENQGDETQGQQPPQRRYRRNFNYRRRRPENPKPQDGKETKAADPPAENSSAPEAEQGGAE

[3] = target: T2, SW480 colon carcinoma cells lysate proteins (Homo sapiens, UniProt P30041); details: PreyGene PRDX6
T2 sequence (P30041 1-224): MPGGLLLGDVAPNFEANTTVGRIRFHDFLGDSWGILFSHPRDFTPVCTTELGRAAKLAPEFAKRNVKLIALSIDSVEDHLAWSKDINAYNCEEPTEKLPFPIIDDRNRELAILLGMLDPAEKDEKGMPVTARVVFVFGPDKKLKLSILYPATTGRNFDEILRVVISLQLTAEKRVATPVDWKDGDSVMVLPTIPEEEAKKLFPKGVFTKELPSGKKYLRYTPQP

[4] = target: T3, SW480 colon carcinoma cells lysate proteins (Homo sapiens, UniProt Q92973); details: PreyGene TNPO1; SW480 cells
T3 sequence (Q92973 1-898): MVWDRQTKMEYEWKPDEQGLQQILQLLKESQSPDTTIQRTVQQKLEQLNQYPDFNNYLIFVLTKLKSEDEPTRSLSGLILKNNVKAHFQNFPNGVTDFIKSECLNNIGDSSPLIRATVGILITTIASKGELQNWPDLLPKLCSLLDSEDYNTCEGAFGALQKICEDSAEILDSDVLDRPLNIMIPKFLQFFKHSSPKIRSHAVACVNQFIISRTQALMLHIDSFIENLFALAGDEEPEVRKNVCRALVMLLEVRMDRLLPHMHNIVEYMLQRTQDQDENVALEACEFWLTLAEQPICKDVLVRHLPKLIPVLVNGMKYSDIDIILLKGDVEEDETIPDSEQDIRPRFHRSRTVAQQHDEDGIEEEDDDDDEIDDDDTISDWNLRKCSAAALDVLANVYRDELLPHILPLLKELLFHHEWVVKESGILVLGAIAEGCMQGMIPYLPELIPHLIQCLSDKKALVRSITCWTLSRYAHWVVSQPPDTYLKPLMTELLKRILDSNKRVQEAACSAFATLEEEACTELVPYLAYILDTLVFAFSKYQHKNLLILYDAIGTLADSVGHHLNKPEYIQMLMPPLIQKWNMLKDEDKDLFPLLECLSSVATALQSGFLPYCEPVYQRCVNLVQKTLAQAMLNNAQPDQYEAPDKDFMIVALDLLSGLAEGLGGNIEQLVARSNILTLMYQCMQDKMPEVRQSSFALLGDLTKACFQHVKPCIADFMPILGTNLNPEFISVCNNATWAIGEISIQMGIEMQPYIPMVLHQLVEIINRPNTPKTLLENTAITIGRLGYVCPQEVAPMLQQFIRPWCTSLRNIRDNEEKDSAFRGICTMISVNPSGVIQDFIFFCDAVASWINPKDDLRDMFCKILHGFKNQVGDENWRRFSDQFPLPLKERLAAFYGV

[5] = target: T4, SW480 colon carcinoma cells lysate proteins (Homo sapiens, UniProt P21980); details: PreyGene TGM2
T4 sequence (P21980 1-687): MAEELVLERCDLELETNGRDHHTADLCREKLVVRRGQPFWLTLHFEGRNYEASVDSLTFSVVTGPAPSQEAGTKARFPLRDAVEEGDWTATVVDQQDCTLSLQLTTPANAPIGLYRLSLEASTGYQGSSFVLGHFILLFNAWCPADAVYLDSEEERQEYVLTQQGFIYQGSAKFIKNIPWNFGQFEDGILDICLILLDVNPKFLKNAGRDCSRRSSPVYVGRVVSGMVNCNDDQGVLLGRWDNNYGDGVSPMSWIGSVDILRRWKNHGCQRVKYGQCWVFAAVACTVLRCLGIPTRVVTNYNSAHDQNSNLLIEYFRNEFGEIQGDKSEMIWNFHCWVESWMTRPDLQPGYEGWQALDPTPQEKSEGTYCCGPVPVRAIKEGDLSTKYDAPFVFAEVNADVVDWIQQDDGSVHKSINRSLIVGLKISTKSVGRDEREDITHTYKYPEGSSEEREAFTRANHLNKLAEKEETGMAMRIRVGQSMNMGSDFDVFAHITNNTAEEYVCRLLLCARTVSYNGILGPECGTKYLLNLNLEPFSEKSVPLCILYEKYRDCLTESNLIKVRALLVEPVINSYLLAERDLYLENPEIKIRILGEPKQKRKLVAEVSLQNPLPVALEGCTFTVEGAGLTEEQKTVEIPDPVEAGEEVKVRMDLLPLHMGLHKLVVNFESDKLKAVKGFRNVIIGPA

C[C@H](Oc1cc(-c2cnn(C3CCNCC3)c2)cnc1N)c1c(Cl)ccc(F)c1Cl [(5)-crizotinib]
AvgP [1]: 0.3569
SC.Exp. 1-1 [1]: 26
SC.Exp. 1-2 [1]: 24
SC.Exp. 2-1 [1]: 5
SC.Exp. 2-2 [1]: 3
Sum (SC.Exp.) [1]: 58
AvgP [2]: 0
SC.Exp. 1-1 [2]: 2
SC.Exp. 1-2 [2]: 2
SC.Exp. 2-1 [2]: 2
SC.Exp. 2-2 [2]: 2
SC.Exp. Sum [2]: 8
AvgP [3]: 0.1992
SC.Exp. 1-1 [3]: 8
SC.Exp. 1-2 [3]: 8
SC.Exp. 2-1 [3]: 0
SC.Exp. 2-2 [3]: 0
Sum (SC.Exp.) [3]: 16
AvgP [4]: 0
SC.Exp. 1-1 [4]: 9
SC.Exp. 1-2 [4]: 7
SC.Exp. 2-1 [4]: 6
SC.Exp. 2-2 [4]: 6
SC.Exp. Sum [4]: 28
AvgP [5]: 0.2455
SC.Exp. 1-1 [5]: 6
SC.Exp. 1-2 [5]: 5
SC.Exp. 2-1 [5]: 0
SC.Exp. 2-2 [5]: 0
Sum (SC.Exp.) [5]: 11

Source: patent publication US9446039B2, “Aminoheteroaryl compounds as MTH1 inhibitors” (CEMM—FORSCHUNGSZENTRUM FÜR MOLEKULARE MEDIZIN GMBH, priority 2012, dated 2016)
